Experimental data published in US5925769A, “Acetylenic 1,5-diarylpyrazoles as antiinflammatory agents” (Ortho Pharmaceutical, Corp., priority 1998, dated 1999).

Legend:
CO [1] = molecular target: T1, CO (Rattus norvegicus, UniProt Q63921); experiment: Procedure III: CO (PgD2) in intact RBL-1 cells; assay type: cell-based; details: calcium ionophore A 23187, read-out: Proc. III CO IC50
T1 construct: the supernatant was saved as the source of enzymes; endogenous in cells; host or cells: RBL-1 (rat basophilic leukemia) cells
T1 sequence (Q63921 27-602): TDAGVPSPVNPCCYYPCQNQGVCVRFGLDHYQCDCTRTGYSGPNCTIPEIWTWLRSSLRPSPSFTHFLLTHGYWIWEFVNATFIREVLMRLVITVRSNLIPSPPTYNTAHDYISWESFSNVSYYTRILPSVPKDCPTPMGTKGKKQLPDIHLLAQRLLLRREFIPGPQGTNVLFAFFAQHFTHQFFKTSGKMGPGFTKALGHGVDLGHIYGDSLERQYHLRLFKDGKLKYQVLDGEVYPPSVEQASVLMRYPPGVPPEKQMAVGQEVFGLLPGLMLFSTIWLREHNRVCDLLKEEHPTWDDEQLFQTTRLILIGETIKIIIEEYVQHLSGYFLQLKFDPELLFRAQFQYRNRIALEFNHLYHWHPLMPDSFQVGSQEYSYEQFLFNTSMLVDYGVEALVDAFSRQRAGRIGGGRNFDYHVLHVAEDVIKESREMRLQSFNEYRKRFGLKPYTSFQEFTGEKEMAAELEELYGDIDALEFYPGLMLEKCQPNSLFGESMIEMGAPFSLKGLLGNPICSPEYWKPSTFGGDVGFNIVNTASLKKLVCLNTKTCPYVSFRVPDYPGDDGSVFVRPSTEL
Method: (§1) The IC50 was determined using a curve fit in Cricket Graph (Computer Associated), which provided the equation of the regressed line used in the calculation.
(§2) In Procedure III, the ability to inhibit 5-LO and CO in intact RBL-1 cells was also evaluated. […] Cells were collected by centrifugation, washed once in HBSS, and resuspended at a concentration of 1×10^5 cells/mL. Cells were incubated in the presence of vehicle or drug then centrifuged at 800×g for 10 minutes at 4° C. The supernatant was removed by aspiration and the cells were resuspended in 0.5 mL of HBSS. […] The conversion of AA to 5-LO products was initiated by the addition of 10 μL (50 μCi) of 1-^14 C-AA. Products were isolated by acidification and extraction, followed by thin layer chromatography analysis as described above. Radioactive areas corresponding to authentic 5-LO (5-HETE) and CO (PgD2) products were quantitated by the Bioscan 2000 Imaging System and the IC50 was calculated as above.

5-LO [2] = molecular target: T2, 5-LO (Rattus norvegicus, UniProt P12527); experiment: Procedure II: 5-LO activity (5-HETE) in broken RBL-1 cells (homogenate supernatant); assay type: biochemical; details: RBL-1 broken cell supernatant; for inhibition at 10 µM: 20 min, @ 10 .quadrature.M, read-out: Proc. II 5-LO % inhibition; for IC50: read-out: Proc. II 5-LO IC50
T2 construct: the supernatant was saved as the source of enzymes; endogenous in cells; host or cells: RBL-1 (rat basophilic leukemia) cells
T2 sequence (P12527 1-673): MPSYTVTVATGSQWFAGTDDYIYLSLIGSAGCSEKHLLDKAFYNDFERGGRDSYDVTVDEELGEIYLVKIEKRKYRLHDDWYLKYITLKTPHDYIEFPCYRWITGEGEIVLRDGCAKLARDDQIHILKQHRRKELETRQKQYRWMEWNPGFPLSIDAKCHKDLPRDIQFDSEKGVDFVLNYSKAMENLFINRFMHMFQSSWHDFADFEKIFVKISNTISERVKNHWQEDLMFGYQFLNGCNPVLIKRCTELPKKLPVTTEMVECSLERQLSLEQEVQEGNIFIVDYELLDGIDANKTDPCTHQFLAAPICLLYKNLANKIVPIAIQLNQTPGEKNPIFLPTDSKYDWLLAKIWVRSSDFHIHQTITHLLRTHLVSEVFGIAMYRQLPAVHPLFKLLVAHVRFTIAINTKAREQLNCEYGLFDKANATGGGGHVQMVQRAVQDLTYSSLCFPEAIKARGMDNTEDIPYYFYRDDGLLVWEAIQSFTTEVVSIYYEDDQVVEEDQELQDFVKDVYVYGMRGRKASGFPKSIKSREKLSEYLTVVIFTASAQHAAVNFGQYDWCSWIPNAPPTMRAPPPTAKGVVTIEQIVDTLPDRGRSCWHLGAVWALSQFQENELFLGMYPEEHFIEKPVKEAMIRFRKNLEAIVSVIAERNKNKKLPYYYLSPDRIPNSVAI
Method: (§3) Procedure II was used to assess LO and CO activity. Rat basophilic leukemia cells (RBL-1; 5×10^7 viable cells/mL) were disrupted by homogenization on ice (four 20 sec bursts) with a Brinkman polytron. […] The homogenate was then centrifuged at 9,220×g for 48 minutes at 4° C. The pellet was discarded and the supernatant was saved as the source of enzymes. The supernatant was pre-incubated for five minutes at 37° C. in the presence of 2 mM of CaCl2 and compound or vehicle (1% DMSO). The conversion of AA into products by CO and LO was initiated by adding 10 μL (50 μCi) of 1-^14 C-AA to each tube and incubated at 37° C. for 20 minutes. The reaction was stopped by adjusting the pH of each sample to 3 to 3.5 with 2M formic acid. Samples were extracted with three volumes of chloroform to isolate the products of 5-LO formed during the reaction. Fractions were dried under nitrogen, then resuspended in 40 μL of chloroform and spotted onto silica gel HL plates. The plates were developed in A-9 solvent. The dried plates were analyzed using a Bioscan Imaging TLC scanner to determine the percentage of radiolabelled AA converted to 5-HETE (LO product) in each sample. The percentage of inhibition was calculated by:
(§4) [1-(5-HETE test)]/5-HETE control×100=% inhibition
as §1

5-LO [3] = molecular target: T2, 5-LO; experiment: Procedure III: 5-LO (5-HETE) in intact RBL-1 cells; assay type: cell-based; details: calcium ionophore A 23187, read-out: Proc. III 5-LO IC50
Method: as §1, §2

[4] = molecular target: T3, Sheep seminal vesicle (SSV) cyclooxygenase (Ovis aries, UniProt P05979); experiment: Procedure I: inhibition of sheep seminal vesicle (SSV) cyclooxygenase; assay type: biochemical; details: SSV cyclooxygenase; for inhibition at 10 µM: 20 min, @ 10 .quadrature.M, read-out: Proc. I % inhibition; for IC50: read-out: Proc. I IC50
T3 construct: Sheep seminal vesicle (SSV) cyclooxygenase (95% pure); purchased Biomol (Plymouth Meeting, PA); host or cells: sheep seminal vesicle
T3 sequence (P05979 25-600): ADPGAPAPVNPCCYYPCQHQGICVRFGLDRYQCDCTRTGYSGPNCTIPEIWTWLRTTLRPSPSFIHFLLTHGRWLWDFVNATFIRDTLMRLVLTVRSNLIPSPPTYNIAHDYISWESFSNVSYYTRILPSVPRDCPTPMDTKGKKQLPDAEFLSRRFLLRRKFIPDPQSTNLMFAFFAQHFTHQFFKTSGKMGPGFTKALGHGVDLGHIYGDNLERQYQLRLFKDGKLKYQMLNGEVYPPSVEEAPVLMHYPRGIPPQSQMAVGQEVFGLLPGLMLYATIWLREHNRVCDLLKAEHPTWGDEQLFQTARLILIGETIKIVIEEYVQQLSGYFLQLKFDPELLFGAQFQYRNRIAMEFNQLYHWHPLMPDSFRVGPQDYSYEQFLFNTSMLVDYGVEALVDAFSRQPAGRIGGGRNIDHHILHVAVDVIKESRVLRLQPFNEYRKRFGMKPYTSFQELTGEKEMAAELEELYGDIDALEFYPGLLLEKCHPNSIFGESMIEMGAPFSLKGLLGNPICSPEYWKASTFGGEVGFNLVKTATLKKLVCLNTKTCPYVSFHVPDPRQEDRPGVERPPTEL
Method: Procedure I was used to determine the ability of the compounds to inhibit cyclooxygenase. […] The enzyme was divided into 200 μL aliquots, snap frozen with liquid N2, and stored at -70° C. until immediately prior to use. […] The tubes were mixed on a vortex shaker, preincubated for 5 min at 37° C. prior to the initiation of the reaction. The reaction was started by the addition of [^14 C]-arachidonic acid (1-^14 C-AA, Amersham, Arlington Heights, Ill.) in 10 μL of methanol. Tubes were again vortexed and incubated in a water bath for 20 minutes after which the tubes were removed and the reaction stopped by acidification with the addition of 1 mL 2M formic acid. Lipophilic products were extracted with 3 mL chloroform and concentrated to dryness under N2. Each pellet was reconstituted with 40 μL of chloroform and spotted on a Whatman Silicon thin-layer chromatography plate and developed in a chromatography tank containing A-9 solvent (11:5:2:1 V:V:VV, ethyl acetate:trimethyl-pentane:acetic acid:double distilled-H2 O). Radioactive cyclooxygenase products (prostaglandin D2, prostaglandin E2, etc.) were measured using a Bioscan System 200 Imaging Scanner. Inhibition of enzyme activity was calculated by comparing the areas under the curve produced in the presence or absence of test compound.

CO [5] = molecular target: T1, CO; experiment: Procedure II: CO activity in broken RBL-1 cells (homogenate supernatant); assay type: biochemical; details: RBL-1 broken cell supernatant; for inhibition at 10 µM: 20 min, @ 10 .quadrature.M, read-out: Proc. II CO % inhibition; for IC50: read-out: Proc. II CO IC50
Method: as §3, §4, §1

Row | IC50 (CO [1]) [nM] | inhibition at 10 µM (5-LO [2]) [%] | IC50 (5-LO [3]) [µM] | inhibition at 10 µM [4] [%] | inhibition at 10 µM (CO [5]) [%] | IC50 (5-LO [2]) [nM] | IC50 [4] [nM] | IC50 (CO [5]) [nM] | Structure (SMILES)
1 | 110 |  | 13.1 |  |  | 80 | 310 | 10 | COc1ccc(-n2nc(C#CC(C)N(O)C(C)=O)cc2-c2ccc(C)cc2)cc1 (stereo not shown) [Cpd 18, N-Acetyl-N-(1-(1-(4-methoxyphenyl)-5-(4-methylphenyl)pyrazol-3-yl)-1-butyn-3-yl)hydroxylamine]
2 | 60 | 100 | 3 | 79 | 100 |  |  |  | CCC(=O)N(O)CC#Cc1cc(-c2ccc(C)cc2)n(-c2ccc(OC)cc2)n1 [Cpd 14]
3 | 360 | 100 | 23.6 |  | 100 |  | 1200 |  | COc1ccc(-n2nc(C#CC(C)N(O)C(=O)CCl)cc2-c2ccc(C)cc2)cc1 (stereo not shown) [Cpd 21, N-Chloroacetyl-N-(1-(1-(4-methoxyphenyl)-5-(4-methylphenyl)pyrazol-3-yl)-1-butyn-3-yl)hydroxylamine]
4 | 220 |  | 10.7 |  |  | 70 | 430 | 10 | CCC(C#Cc1cc(-c2ccc(C)cc2)n(-c2ccc(OC)cc2)n1)N(O)C(C)=O (stereo not shown) [Cpd 28, N-acetyl-N-(1-(1-(4-methoxyphenyl)-5-(4-methylphenyl)pyrazol-3-yl)-1-pentyn-3-yl)hydroxylamine]
5 | 6200 |  | 3.5 |  | 0 | 10 | 32000 |  | COc1ccc(-n2nc(C#CC(C)N(O)C(N)=O)cc2-c2ccc(Cl)cc2)cc1 (stereo not shown) [Cpd 6]
6 | 750 | 78 | 57.4 | 21 | 72 |  |  |  | CCc1ccc(-c2cc(C#CC(C)N(O)C(=O)OC)nn2-c2ccc(OC)cc2)cc1 (stereo not shown) [Cpd 34]
7 | 1400 |  | 7.7 | 10 |  | 370 |  | 9400 | COc1ccc(-n2nc(C#CC(C)N(O)C(N)=O)cc2-c2ccc(C)cc2)cc1 (stereo not shown) [Cpd 2, N-hydroxy-N-(1-(1-(4-methoxyphenyl)-5-(4-methylphenyl)pyrazol-3-yl)-1-butyn-3-yl)urea]

More lines, now with the values behind:

Row | Structure (SMILES) | IC50 (CO [1]) [nM] | inhibition at 10 µM (5-LO [2]) [%] | IC50 (5-LO [3]) [µM] | inhibition at 10 µM [4] [%] | inhibition at 10 µM (CO [5]) [%] | IC50 (5-LO [2]) [nM] | IC50 [4] [nM] | IC50 (CO [5]) [nM]
8 | COc1ccc(-n2nc(C#CCN(O)C(C)=O)cc2-c2ccc(C)cc2)cc1 [Cpd 13, N-acetyl-N-(1-(1-(4-methoxyphenyl)-5-(4-methylphenyl)pyrazol-3-yl)-1-propyn-3-yl)hydroxylamine] | 30 | 100 | 7.2 | 74 | 100 |  |  | 
9 | CCOC(=O)CCC(=O)N(O)C(C)C#Cc1cc(-c2ccc(CC)cc2)n(-c2ccc(OC)cc2)n1 (stereo not shown) [Cpd 32] | 14000 | 97 | 5.1 | 3 | 52 |  |  | 
10 | CCC(C#Cc1cc(-c2ccc(Cl)cc2)n(-c2ccc(OC)cc2)n1)N(O)C(N)=O (stereo not shown) [Cpd 11] | 70400 | 91 | 2.17 | 0 | 30 |  |  | 
11 | COc1ccc(-n2nc(C#CC(C)N(O)C(=O)c3ccccc3)cc2-c2ccc(Cl)cc2)cc1 (stereo not shown) [Cpd 40] | 5500 |  | 1.8 | 5 |  | 920 |  | 14900
12 | CCc1ccc(-c2cc(C#CC(C)N(O)C(C)=O)nn2-c2ccc(OC)cc2)cc1 (stereo not shown) [Cpd 29, N-acetyl-N-(1-(5-(4-ethylphenyl)-1-(4-methoxyphenyl)pyrazol-3-yl)-1-butyn-3-yl)hydroxylamine] | 340 |  | 11.9 |  |  | 270 | 2510 | 60
13 | CCC(C#Cc1cc(-c2ccc(C)cc2)n(-c2ccc(OC)cc2)n1)N(O)C(N)=O (stereo not shown) [Cpd 3] | 2100 |  | 21.3 | 22 |  | 70 |  | 15900
14 | COc1ccc(-n2nc(C#CC(C)N(O)C(=O)C(C)C)cc2-c2ccc(C)cc2)cc1 (stereo not shown) [Cpd 20, N-isobutyryl-N-(1-(1-(4-methoxyphenyl) -5(4-methylphenyl)pyrazol-3-yl)-1-butyn-3-yl)hydroxylamine] | 90 |  | 5.6 |  |  | 100 | 390 | 40
